SMILES strings stand for the structures.

Holding throughout (assay): Kinase panel profiling at 1 µmol/L (mobility shift assay, Carna)
Type in all cases: biochemical
Conditions in all cases: 1 µmol/L of BTK inhibitor

Test [1] deals with T1, PKCθ (Homo sapiens, UniProt Q04759).
T1 construct: purchased Carna Biosciences

In test [2] the target is T2, PKD1 (Homo sapiens, UniProt Q15139).
T2 construct: purchased Carna Biosciences
T2 sequence (Q15139 1-912): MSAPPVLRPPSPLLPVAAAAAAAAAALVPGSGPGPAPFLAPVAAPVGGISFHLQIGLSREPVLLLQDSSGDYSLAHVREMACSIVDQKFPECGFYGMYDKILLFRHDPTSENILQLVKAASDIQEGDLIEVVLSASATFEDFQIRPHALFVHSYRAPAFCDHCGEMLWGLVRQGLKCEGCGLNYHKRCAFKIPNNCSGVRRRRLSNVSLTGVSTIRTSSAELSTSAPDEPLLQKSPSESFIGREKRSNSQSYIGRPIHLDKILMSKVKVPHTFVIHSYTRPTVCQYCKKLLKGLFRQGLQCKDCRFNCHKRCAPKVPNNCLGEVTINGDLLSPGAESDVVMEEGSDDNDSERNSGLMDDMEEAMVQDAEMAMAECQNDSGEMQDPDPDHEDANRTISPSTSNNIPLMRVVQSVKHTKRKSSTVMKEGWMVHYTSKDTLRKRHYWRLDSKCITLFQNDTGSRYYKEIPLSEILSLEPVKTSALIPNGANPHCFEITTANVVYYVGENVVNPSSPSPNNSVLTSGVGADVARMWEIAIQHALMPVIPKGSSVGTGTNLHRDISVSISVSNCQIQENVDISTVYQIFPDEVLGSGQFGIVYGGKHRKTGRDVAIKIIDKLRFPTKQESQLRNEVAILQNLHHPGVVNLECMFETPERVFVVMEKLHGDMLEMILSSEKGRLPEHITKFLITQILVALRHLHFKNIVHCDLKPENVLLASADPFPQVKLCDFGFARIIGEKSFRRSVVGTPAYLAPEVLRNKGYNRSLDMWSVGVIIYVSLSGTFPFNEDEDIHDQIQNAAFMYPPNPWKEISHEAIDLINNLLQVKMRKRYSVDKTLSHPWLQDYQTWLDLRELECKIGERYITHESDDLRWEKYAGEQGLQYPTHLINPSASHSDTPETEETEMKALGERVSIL

The target in test [3] is T3, PKCβ1 (Homo sapiens, UniProt P05771).
T3 construct: purchased Carna Biosciences
T3 sequence (P05771 whole entry): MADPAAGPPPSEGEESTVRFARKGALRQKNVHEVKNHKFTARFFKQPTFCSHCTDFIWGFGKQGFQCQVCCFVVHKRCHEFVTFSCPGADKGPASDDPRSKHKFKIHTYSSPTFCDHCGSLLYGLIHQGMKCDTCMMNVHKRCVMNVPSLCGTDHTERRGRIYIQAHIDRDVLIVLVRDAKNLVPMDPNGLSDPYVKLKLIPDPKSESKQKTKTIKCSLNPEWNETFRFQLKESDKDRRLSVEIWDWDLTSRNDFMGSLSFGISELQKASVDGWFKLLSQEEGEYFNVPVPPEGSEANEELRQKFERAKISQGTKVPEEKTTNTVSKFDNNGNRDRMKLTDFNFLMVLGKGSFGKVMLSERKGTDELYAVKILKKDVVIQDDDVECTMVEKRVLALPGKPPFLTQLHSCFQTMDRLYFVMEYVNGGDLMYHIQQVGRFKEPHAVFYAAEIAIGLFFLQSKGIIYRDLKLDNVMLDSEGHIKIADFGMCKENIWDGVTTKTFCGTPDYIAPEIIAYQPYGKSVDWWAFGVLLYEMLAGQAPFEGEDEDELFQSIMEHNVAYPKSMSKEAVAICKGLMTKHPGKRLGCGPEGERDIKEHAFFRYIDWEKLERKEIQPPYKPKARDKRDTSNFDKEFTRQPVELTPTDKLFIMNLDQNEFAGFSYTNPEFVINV

Test [4] concerns the target T4, PKACγ (Homo sapiens, UniProt P22612).
T4 construct: purchased Carna Biosciences

In test [5] the target is T5, Erk5 (Homo sapiens, UniProt Q13164).
T5 construct: purchased Carna Biosciences
T5 sequence (Q13164 whole entry): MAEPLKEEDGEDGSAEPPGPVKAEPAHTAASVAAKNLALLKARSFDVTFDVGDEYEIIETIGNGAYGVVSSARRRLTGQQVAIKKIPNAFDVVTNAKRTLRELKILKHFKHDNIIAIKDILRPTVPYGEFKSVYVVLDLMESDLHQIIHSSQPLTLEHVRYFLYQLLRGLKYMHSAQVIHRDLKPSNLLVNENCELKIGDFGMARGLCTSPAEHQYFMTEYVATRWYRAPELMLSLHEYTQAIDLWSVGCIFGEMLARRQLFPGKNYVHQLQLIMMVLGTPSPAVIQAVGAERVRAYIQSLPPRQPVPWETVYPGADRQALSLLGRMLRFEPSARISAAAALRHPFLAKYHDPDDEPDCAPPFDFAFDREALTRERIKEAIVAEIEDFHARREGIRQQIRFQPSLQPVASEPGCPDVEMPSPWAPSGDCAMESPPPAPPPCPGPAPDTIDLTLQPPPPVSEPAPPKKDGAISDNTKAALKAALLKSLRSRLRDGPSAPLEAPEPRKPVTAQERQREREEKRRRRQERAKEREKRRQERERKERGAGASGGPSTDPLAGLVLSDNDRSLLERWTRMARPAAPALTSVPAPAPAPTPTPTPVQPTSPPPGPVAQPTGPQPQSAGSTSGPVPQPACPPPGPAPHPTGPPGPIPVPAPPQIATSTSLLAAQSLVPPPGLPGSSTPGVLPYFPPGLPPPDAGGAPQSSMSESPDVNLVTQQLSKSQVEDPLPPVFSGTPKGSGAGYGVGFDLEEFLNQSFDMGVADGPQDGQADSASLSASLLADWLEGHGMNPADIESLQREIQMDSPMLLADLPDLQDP

Test [6] deals with T6, MST2 (Homo sapiens, UniProt Q13188).
T6 construct: purchased Carna Biosciences
T6 sequence (Q13188 1-491): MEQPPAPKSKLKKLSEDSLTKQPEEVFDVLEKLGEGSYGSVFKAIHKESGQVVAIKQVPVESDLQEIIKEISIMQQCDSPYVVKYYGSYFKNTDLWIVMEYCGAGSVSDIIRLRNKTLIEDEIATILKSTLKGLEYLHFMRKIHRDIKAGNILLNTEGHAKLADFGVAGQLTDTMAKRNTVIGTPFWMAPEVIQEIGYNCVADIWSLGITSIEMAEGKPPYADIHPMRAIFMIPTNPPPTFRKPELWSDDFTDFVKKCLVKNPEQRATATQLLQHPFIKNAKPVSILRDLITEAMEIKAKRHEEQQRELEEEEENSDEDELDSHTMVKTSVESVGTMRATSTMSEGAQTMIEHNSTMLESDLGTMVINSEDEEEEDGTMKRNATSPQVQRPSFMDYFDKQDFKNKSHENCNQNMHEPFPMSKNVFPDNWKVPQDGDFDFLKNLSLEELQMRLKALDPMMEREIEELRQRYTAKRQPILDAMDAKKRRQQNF

The target in test [7] is T7, RSK3 (Homo sapiens, UniProt Q15349).
T7 construct: purchased Carna Biosciences
T7 sequence (Q15349 whole entry): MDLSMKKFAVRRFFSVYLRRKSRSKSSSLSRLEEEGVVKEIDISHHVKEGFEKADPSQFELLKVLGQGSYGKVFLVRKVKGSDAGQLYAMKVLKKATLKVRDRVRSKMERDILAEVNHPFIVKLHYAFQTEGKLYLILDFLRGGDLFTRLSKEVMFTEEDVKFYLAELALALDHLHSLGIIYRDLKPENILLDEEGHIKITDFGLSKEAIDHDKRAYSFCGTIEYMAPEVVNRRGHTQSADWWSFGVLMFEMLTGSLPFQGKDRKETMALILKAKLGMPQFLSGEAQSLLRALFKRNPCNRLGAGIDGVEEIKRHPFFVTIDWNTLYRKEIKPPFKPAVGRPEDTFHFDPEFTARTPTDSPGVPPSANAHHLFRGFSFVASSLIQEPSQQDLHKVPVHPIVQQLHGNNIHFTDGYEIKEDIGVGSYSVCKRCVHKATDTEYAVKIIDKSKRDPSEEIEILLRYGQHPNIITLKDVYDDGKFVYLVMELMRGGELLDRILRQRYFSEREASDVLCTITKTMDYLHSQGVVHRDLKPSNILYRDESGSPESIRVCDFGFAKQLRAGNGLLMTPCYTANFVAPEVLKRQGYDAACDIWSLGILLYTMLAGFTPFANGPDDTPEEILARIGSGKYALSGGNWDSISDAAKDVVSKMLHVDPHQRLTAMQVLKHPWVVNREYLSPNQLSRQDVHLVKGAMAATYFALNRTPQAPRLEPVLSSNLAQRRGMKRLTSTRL

Test [8] has as its target T8, EPHA1 (Homo sapiens, UniProt P21709).
T8 construct: purchased Carna Biosciences
T8 sequence (P21709 26-976): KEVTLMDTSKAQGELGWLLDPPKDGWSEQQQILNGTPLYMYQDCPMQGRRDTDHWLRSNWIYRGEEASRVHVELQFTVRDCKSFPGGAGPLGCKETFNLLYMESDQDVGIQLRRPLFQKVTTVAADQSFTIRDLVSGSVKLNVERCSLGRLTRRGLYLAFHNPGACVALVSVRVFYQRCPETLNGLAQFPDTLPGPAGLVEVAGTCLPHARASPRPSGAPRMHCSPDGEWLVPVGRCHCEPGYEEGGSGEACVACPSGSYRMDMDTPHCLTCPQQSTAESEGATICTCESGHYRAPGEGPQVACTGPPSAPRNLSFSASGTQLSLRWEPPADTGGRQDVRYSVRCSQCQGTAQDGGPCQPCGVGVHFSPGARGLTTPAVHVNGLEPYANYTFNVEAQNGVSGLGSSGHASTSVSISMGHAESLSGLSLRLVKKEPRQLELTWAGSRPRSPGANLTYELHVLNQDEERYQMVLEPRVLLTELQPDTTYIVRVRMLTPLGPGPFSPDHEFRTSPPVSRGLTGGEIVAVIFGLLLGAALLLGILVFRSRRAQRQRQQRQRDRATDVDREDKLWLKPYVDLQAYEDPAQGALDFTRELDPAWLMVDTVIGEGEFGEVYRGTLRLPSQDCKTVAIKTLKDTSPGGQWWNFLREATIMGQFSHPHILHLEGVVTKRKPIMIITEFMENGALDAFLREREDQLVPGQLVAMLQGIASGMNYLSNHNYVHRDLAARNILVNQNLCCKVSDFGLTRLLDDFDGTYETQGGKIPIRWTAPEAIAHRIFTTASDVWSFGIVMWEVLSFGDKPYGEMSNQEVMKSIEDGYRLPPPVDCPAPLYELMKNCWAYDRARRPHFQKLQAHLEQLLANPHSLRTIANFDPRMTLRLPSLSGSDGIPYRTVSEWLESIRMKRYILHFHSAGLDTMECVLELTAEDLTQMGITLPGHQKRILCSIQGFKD

The target of test [9] is T9, PKN1 (Homo sapiens, UniProt Q16512).
T9 construct: purchased Carna Biosciences
T9 sequence (Q16512 whole entry): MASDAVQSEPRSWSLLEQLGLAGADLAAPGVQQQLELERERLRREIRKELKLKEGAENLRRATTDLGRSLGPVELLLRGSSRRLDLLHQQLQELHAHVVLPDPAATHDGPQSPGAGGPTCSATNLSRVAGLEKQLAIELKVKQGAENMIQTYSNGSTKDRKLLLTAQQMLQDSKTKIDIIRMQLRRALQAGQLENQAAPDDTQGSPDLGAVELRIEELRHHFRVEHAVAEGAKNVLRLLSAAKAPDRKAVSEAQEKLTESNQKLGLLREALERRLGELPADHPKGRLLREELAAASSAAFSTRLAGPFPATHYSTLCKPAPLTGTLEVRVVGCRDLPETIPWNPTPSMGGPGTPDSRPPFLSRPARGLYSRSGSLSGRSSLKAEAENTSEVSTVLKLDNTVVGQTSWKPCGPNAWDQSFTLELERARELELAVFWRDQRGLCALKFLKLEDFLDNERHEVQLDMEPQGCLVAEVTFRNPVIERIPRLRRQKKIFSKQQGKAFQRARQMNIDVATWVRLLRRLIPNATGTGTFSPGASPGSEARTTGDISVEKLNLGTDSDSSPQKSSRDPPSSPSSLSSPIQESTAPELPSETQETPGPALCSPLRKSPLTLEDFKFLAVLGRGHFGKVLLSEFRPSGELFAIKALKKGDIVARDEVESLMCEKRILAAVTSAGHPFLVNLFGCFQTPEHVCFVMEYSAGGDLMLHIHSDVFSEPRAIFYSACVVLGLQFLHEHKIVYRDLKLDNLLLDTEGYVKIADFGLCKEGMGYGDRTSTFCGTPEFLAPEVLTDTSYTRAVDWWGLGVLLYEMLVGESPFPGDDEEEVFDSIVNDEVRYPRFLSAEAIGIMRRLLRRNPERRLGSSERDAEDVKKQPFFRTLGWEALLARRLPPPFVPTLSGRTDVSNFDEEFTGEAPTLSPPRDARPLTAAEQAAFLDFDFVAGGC

The target of test [10] is T10, PDHK2 (Homo sapiens, UniProt Q15119).
T10 construct: purchased Carna Biosciences

The target of test [11] is T11, CDK2/CycE1 (Homo sapiens, UniProt P24941).
T11 construct: purchased Carna Biosciences

T1 sequence (Q04759 whole entry): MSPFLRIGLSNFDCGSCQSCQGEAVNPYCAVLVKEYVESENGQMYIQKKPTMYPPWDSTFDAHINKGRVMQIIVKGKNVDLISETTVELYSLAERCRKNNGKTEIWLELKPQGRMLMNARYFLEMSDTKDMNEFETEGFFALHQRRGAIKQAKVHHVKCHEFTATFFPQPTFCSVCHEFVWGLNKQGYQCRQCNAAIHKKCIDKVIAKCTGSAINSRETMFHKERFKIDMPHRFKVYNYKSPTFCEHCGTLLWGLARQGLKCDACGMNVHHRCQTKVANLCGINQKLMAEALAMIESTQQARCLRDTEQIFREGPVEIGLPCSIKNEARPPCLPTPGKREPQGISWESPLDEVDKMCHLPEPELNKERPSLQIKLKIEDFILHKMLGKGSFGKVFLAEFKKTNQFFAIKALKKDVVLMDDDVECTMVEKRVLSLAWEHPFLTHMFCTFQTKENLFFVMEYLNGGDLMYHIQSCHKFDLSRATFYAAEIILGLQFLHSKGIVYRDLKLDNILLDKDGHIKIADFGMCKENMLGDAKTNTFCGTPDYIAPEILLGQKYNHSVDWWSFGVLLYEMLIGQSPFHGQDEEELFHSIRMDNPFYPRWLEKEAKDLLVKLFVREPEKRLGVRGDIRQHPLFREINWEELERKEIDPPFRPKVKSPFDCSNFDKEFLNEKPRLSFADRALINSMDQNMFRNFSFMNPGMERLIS
T4 sequence (P22612 whole entry): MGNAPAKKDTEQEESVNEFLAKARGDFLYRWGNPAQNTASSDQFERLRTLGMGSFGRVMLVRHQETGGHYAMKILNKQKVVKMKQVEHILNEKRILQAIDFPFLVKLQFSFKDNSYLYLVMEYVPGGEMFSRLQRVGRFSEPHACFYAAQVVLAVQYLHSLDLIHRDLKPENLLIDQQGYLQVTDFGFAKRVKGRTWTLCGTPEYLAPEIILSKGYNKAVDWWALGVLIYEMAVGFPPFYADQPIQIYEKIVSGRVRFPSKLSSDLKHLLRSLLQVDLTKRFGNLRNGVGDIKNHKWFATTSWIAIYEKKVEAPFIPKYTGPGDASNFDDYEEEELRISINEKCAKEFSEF

As to `CC#CC(=O)N1CCC[C@H]1c1nc(-c2ccc(C(=O)Nc3ccccn3)cc2)c2c(N)nccn12` [acalabrutinib], the “Percentage inhibition of kinase enzyme activity” value (shortened to “Percentage inhibition”) is -8.13% in test [1]; -9.48% in test [2]; -10.97% in [3]; 1.68% in [4]; -2.12% in test [5]; -3.46% in [6]. Moreover, the “Percentage inhibition” value in [7] is 1.13%; in test [8], -0.59%; in test [9], 11.29%; in [10], 0.16%; in test [11], -4.82%.
With `COc1ccc(F)cc1C(=O)NCc1ccc(-c2nn([C@@H](C)C(F)(F)F)c(N)c2C(N)=O)cc1` [pirtobrutinib], the “Percentage inhibition” value in [1] is on record as 4.94%; in test [2], 4.89%; in [3], 5.78%; in test [4], 1.36%; in test [5], 0.51%; in test [6], 6.74%. The “Percentage inhibition” value was 1.65% in test [7]; -1.27% in test [8]; 15.81% in test [9]; 0.06% in test [10]; -41.48% in test [11].
For `C=CC(=O)N1CCC[C@@H](n2nc(-c3ccc(Oc4ccccc4)cc3)c3c(N)ncnc32)C1` [ibrutinib], the “Percentage inhibition” value in [1] was -1.13%; in test [2] it was 3.22%; in test [3], -2.90%; in test [4] it was 4.90%; in test [5], 3.89%; in [6], 16.65%. For the same compound, the “Percentage inhibition” value in [7] is on record as 8.80%; in test [8], 49.82%; in test [9], 8.58%; in test [10], -1.08%; in test [11], -8.27%.
Consider `O=C(c1ccc(Oc2ccccc2)cc1Cl)c1c[nH]c2ncnc(N[C@@H]3CC[C@@H](CO)OC3)c12` [nemtabrutinib], for which the “Percentage inhibition” value in test [1] is given as -0.21%; in test [2], 7.45%; in [3] it was -3.07%; in test [4], 11.12%; in test [5], 15.76%; in [6], 86.96%. Besides, the “Percentage inhibition” value was 19.54% in test [7]; 58.54% in test [8]; 5.57% in [9]; 4.18% in test [10]; -17.66% in test [11].
Take `C=CC(=O)N1CCC([C@@H]2CCNc3c(C(N)=O)c(-c4ccc(Oc5ccccc5)cc4)nn32)CC1` [zanubrutinib]: the “Percentage inhibition” value in test [8] is -1.86%.
